Experiments:
choroidal angiogenesis = assay: In vitro model of choroidal angiogenesis; assay type: cell-based; details: 20 ng/mL and 4 ng/mL
Protocol: The antiangiogenic effect of Tacrolimus was also tested in an in vitro model of choroidal angiogenesis and compared with dexamethasone.

[1] = test system: BMDMs (bone marrow derived macrophages); assay: In vitro study using BMDMs (culture of bone marrow derived macrophages), expression of angiogenic growth factors; assay type: cell-based
[2] = Tamura et al., 2002; cited from earlier work

## C=CC[C@@H]1/C=C(\C)C[C@H](C)C[C@H](OC)[C@H]2O[C@@](O)(C(=O)C(=O)N3CCCC[C@H]3C(=O)O[C@H](/C(C)=C/[C@@H]3CC[C@@H](O)[C@H](OC)C3)[C@H](C)[C@@H](O)CC1=O)[C@H](C)C[C@@H]2OC [Tacrolimus]
Choroidal angiogenesis; 100 ng/mL
  Dose dependence of the suppression of choroidal angiogenesis in vitro: not dose-dependent
Choroidal angiogenesis; tacrolimus at 100 ng/mL
  Effect on choroidal angiogenesis in vitro: suppressed choroidal angiogenesis
[1]
  Expression of pro-angiogenic growth factors: can reduce the expression of pro-angiogenic growth factors
[2]
  Ability to penetrate tissue barrier upon topical administration: poor ability to penetrate tissue barrier

Source: patent US20220008397A1, “PHARMACEUTICAL COMPOSITION FOR THE TREATMENT OF OCULAR NEOVASCULARISATION” (NOVALIQ GMBH, priority 2019, published 2022)
